Assay results taken from US8697031B2, “Dual function polymer micelles” (Case Western Reserve University, priority 2004, dated 2014).
Where no end group is shown, it is not given here.

Test system: SLK tumor endothelial cells
Assay: Flow cytometry analysis of micelle uptake
Format: cell-based
Settings: SLK cells pre-incubated with free blocking peptide at 9 mM, then co-incubated with micelles
Experimental: SLK cells were seeded at 125,000 cells/well in 6-well plates in 2 mL DMEM with 10% FBS. After 24 h, 1 mg of micelles (from 3.3 mg/ml micelle suspension) for each micelle formulation with different cRGD density (0, 5, 16, 76% cRGD) was added into each well and incubated at 37° C. for 2 h. Then, cells were washed, trypsinized and neutralized. After centrifugation at 1200 rpm for 5 min, cells were re-suspended in 1 mL PBS, followed by filtration and analysis using flow cytometry. […] In the control experiment, SLK cells were first incubated with a free blocking peptide, Ala-Ala-Arg-Gly-Asp-Tyr (AARGDY) (SEQ ID NO: 757), and then co-incubated with 76% cRGD-functionalized micelles.

In the case of AARGDY, the “inhibition of uptake of 76% cRGD-functionalized micelles” value is reported as about 100%.
